The source of these data is US20220041559A1, “BENZO-AND PYRIDO-PYRAZOLES AS PROTEIN KINASE INHIBITORS” (ROTTAPHARM BIOTECH S.R.L., priority 2019, published 2022).

The subject of one experiment is U87MG. Briefly: Cell viability, ViaCount assay, U87MG. The format is cell-based, human. As to conditions: tested cell lines (U87MG, U373). On the procedure:
U87MG: a human glioblastoma astrocytoma from ATCC. Grown in DMEM medium supplemented with 10% FBS at 37° C. with CO2.
Cell viability and total cell count was performed with ViaCount Assay on Guava® Systems, which was able to distinguish viable and non-viable cells based on differential permeabilities of two DNA-binding dyes in the Guava ViaCount® Reagent. 2×10^4 cancer cells were plated in 24 well in DMEM 10%. After 72 h cells were treated with the different compounds for 24, 72 h or 7 days, with a medium change and a second treatment with the product on day 4. At the end of the incubation period the analysis was done following the kit instructions.

A further experiment deals with T1, FYN (Homo sapiens, UniProt P06241).
T1 construct: purchased CarnaBioscience
T1 sequence (P06241 whole entry): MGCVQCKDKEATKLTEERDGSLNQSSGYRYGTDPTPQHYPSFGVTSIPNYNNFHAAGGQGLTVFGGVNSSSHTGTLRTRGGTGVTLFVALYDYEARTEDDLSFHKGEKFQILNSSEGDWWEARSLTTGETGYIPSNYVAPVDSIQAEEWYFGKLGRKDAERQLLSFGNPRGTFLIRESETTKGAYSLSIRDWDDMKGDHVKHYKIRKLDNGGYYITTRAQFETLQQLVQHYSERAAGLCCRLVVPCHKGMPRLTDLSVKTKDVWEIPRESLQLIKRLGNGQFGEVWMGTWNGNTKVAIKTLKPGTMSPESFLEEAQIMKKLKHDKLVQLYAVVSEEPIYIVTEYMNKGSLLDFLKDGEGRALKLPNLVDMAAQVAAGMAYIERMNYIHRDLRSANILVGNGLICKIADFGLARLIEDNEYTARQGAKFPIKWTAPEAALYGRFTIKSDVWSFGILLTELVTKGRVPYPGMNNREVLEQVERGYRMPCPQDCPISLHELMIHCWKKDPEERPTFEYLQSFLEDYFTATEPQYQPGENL
Briefly: Z'-LYTE in vitro kinase assay, FYN kinase inhibition. It counts as biochemical. Put shortly:
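Active FYN incubated with Z′-LYTE Tyr 2 peptide, near-Km ATP and compound (10^−10 to 10^−5 M final, 1% DMSO) in 50 mM Hepes pH 7.5, 10 mM MgCl2, 1 mM EGTA, 0.01% Brij-35, 60 min at 25° C. Protease development then coumarin/fluorescein FRET readout gives % phosphorylation; IC50 by non-linear fitting.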

A further experiment deals with EGFR (Homo sapiens, UniProt P00533). Put plainly: ADP-Glo in vitro kinase assay, EGFR kinase inhibition. The format is biochemical. On the set-up: purchased SignalChem. As to conditions: ATP 10 μM, 30 minutes at room temperature. On the procedure: (§1) The ADP-Glo™ Kinase Assay (Promega), monitoring ADP produced in the kinase reaction, was performed in two steps. In the first one, after the kinase reaction, the ADP-Glo™ Reagent is added to terminate the kinase reaction and deplete the remaining ATP. In the second step, the Kinase Detection Reagent is added to simultaneously convert ADP to ATP (ATPn or newly synthesized ATP) and introduce luciferase and luciferin, allowing the ATPn to be measured (luciferase/luciferin reaction). The amount of light generated correlates with the amount of ATPn (indirectly with the ADP produced in kinase reaction).
Chain of EGFR (P00533 25-1210): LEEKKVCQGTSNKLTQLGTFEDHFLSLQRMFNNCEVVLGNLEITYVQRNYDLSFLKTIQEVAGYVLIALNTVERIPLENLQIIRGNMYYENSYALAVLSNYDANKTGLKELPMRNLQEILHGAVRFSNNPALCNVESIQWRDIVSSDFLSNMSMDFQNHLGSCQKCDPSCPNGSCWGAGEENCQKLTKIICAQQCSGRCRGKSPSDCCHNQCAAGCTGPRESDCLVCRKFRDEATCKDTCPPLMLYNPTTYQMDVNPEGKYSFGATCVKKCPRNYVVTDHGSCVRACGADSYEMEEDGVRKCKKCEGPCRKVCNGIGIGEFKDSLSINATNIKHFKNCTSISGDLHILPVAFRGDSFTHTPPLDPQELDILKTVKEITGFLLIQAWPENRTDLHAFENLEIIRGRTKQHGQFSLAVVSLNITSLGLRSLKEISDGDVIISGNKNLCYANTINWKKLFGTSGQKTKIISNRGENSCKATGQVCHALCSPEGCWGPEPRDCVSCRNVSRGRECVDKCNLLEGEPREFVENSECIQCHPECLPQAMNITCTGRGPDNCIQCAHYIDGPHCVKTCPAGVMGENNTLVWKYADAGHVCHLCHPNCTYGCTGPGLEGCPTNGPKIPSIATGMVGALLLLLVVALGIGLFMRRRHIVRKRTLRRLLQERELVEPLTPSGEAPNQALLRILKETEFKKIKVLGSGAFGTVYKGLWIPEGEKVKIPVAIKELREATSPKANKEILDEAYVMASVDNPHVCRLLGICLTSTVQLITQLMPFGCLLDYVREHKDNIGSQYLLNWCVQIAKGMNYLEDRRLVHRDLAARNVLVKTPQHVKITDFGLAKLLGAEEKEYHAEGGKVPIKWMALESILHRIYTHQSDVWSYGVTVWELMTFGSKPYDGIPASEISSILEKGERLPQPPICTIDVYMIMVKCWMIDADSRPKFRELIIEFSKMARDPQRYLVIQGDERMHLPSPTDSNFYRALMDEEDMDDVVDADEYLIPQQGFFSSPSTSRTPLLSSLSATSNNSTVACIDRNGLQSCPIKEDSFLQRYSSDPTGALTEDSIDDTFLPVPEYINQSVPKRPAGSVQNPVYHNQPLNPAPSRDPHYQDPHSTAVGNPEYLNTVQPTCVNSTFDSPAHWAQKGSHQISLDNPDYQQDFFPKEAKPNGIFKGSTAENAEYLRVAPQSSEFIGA
(§2) Kinase reaction was performed in 10 μl in a white 384-well plate, inhibitor solutions in DMSO/Kinase buffer (40 mM Tris-Cl, 20 mM MgCl2, 0.1 mg/ml BSA, 50 μM DTT, pH 7.5) and EGFR kinase in Kinase buffer (SignalChem, 2.5 ng/μl final concentration in assay) were pre-incubate 15 minutes at room temperature. At the kinase concentration selected a signal-to negative control ratio >10 was calculated, according to supplier indication. In samples representing the Total enzymatic activity (no inhibitor) or the negative control (no enzyme), inhibitor solution was replaced by diluents (1 DMSO in kinase buffer, final concentration) or ultra-pure water, respectively.
(§3) The range of inhibitor concentrations was from 10^−11 M up to 3×10^−6 M (final concentration in assay) and each experimental point was performed in duplicate.
(§4) To start the reaction, a substrate/ATP mix (ATP 10 μM final concentration, near to ATP Km value) was added to each sample and after 30 minutes incubation at room temperature, ADP-Glo™ Reagent and Kinase Detection Reagent, incubated in sequence according to the respective incubation time and supplier indication, allowed to stop and develop the kinase reaction. The luminescence was measured with a plate-reading luminometer (Envision 2104 Multilabel reader, PerkinElmer). The percentage of inhibition was calculated towards the Total enzymatic activity and the corresponding curves were analyzed by non linear curve fitting (GraphPad software, version 7 for Windows), allowing to calculate the IC50 value±standard error of the estimate.

In a further experiment the target is human FynB (Homo sapiens, UniProt P06241). Briefly: Inhibition of FynB-induced Tau(Y18)-phosphorylation (cell-based assay, HEK293). On the procedure:
HEK293 cells (Human Embryonic Kidney 293) were seeded at 6×10^5 in poly-D-lysine 12 w microplates and grown adherent in medium DMEM/10% FBS at 37° C. with 5% CO2. After 24 h, cells were transfected in order to over-express either constitutively active form of human FynB and Tau protein (isoform 0N4R), through an optimized Lipofectamine® 3000 Transfection protocol (Life Technologies™). A non-transfected sample (negative control) was included in every experiment.
Twenty-four hours from transfection, treatments of cells were performed by adding fresh medium containing diluent (DMSO 0.1% final concentration) or test compounds. The incubation was carried out for 6 or 24 hours at 37° C. with 5% CO2. All experimental conditions were performed in duplicate.
At the end of the incubation, the medium was removed and cellular lysates were obtained by adding M-PER lysis buffer containing a 1× Protease/Phosphatase inhibitors cocktail. Then, lysates were transferred into Eppendorf tubes, sonicated and stored at −80° C.
Protein content was measured by Bradford method. Lysates were analyzed by a customized ELISA assay for Tau phosphorylation (Tyrosine 18 residue-Fyn mediated) and Total amount determination. The net OD values were used to calculate the inhibitory effect of compounds.

In another experiment the target is T2, VEGFR2 (KDR) kinase (Homo sapiens, UniProt P35968).
T2 construct: purchased SignalChem
T2 sequence (P35968 20-1356): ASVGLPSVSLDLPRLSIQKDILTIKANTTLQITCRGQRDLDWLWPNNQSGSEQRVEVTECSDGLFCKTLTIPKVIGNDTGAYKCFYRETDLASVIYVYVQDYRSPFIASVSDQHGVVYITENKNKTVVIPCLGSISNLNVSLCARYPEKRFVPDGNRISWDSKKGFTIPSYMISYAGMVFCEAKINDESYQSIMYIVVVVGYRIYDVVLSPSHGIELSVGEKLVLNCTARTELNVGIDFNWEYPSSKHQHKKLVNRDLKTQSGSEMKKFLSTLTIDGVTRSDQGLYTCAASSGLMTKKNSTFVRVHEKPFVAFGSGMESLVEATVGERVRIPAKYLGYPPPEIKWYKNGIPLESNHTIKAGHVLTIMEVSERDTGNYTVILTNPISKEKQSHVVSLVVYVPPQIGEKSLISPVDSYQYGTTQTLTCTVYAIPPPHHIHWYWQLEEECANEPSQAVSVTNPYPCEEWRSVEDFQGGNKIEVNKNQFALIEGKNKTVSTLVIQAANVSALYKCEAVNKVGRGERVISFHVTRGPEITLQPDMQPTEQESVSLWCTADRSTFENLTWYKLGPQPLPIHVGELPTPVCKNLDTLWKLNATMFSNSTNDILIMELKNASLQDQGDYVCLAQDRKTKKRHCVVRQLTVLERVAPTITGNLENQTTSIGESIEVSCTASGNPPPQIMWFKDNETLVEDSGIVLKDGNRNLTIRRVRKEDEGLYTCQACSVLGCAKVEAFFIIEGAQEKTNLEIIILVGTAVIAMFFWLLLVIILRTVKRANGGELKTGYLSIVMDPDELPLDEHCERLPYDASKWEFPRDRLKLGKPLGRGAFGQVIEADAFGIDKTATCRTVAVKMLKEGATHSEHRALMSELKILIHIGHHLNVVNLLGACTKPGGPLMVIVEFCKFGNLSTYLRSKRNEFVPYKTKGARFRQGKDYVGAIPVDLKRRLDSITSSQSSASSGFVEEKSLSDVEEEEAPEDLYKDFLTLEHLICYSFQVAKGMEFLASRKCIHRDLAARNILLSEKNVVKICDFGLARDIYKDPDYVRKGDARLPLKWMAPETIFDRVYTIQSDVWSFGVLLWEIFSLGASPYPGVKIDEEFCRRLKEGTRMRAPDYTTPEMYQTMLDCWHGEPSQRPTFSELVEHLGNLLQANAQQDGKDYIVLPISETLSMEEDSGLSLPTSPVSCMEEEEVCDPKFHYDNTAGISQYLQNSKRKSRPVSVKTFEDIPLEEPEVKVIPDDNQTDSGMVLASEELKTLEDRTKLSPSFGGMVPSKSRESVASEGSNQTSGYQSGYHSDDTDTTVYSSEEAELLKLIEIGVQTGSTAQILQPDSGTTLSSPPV
Put plainly: ADP-Glo in vitro kinase assay, VEGFR2 kinase inhibition. The format is biochemical. On the procedure:
as §1
as §2, with “VEGFR2 (KDR)” for “EGFR”, “0.5” for “2.5”, “selected,” for “selected”, “activity” for “activity (no inhibitor)”
as §3
as §4, with “(50” for “(ATP 10”, “value” for “estimate.”

Chain of human FynB (P06241 271-524 limits assumed): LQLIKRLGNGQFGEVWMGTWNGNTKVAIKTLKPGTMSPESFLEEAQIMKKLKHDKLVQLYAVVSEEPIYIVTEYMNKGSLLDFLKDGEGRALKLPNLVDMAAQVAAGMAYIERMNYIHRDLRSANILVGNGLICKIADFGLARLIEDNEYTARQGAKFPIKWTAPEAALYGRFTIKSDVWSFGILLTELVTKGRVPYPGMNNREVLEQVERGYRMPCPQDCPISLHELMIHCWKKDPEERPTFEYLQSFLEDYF

With `CN1CCC(c2ccc(C(=O)Nc3n[nH]c4nc(Nc5ccc6c(c5)OCO6)ccc34)cc2)CC1` [Compound 28, N-(6-(benzo[d][1,3]dioxol-5-ylamino)-1H-pyrazolo[3,4-b]pyridin-3-yl)-4-(1-methylpiperidin-4-yl)benzamide], the “reduction of cell viability, result in words” value with U87MG is “active in reducing cell viability”. Also, the “FYN kinase inhibition, result in words” value at FYN (Table 17) is reported as “more active”. Moreover, the IC50 against FYN (near-Km ATP, 60 minutes at 25° C.) is 72 nM; against EGFR, no less than 1000 nM; at human FynB (HEK293 over-expressing FynB and Tau 0N4R, incubation 6 or 24 hours, ELISA), 100 nM; against VEGFR2 (KDR) kinase (ATP 50 μM, 30 minutes at room temperature) it was 1 nM. Moreover, the “Inhibition of FynB-induced Tau(Y18)-phosphorylation, result in words” value at human FynB (summary of Table 20) is reported as “best inhibitors”. For the same compound, the “VEGFR2 kinase inhibition, result in words” value on VEGFR2 (KDR) kinase (Table 19) is on record as “more potent”.
